These results are taken from patent US11046675B2, “Substituted isoquionline derivatives as immunomudulators” (Bristol-Myers Squibb Company, priority 2017, dated 2021).

Usually IC50 stands for the midpoint of a concentration-inhibition curve.

Molecules are shown by their SMILES.

Chain of PD-1/PD-L1 (Q9NZQ7 other isoform, or with tags, fused parts or gaps): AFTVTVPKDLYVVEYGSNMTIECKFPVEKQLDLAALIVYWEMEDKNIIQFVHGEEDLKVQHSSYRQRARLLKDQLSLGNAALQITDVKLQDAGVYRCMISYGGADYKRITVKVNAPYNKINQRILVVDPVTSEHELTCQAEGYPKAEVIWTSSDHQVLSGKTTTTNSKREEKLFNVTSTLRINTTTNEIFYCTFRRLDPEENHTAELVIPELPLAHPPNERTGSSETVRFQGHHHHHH

One experiment addresses PD-1/PD-L1 (Homo sapiens (Human), UniProt Q9NZQ7). As to the kind of experiment: PD-1/PD-L1 Homogenous Time-Resolved Fluorescence (HTRF) binding assay. The following applies: PD-L1-His 10 nM, PD-1-Ig 20 nM; reported as range class; read-out: IC50 (μM) (Range or value). From the text:
The ability of the compounds of formula (I) to bind to PD-L1 was investigated using a PD-1/PD-L1 Homogenous Time-Resolved Fluorescence (HTRF) binding assay.
Homogenous Time-Resolved Fluorescence (HTRF) Binding Assay
The interaction of PD-1 and PD-L1 can be assessed using soluble, purified preparations of the extracellular domains of the two proteins. The PD-1 and PD-L1 protein extracellular domains were expressed as fusion proteins with detection tags, for PD-1, the tag was the Fc portion of Immunoglobulin (PD-1-Ig) and for PD-L1 it was the 6 histidine motif (PD-L1-His). All binding studies were performed in an HTRF assay buffer consisting of dPBS supplemented with 0.1% […] bovine serum albumin and 0.05% (v/v) Tween-20. For the h/PD-L1-His binding assay, inhibitors were pre-incubated with PD-L1-His (10 nM final) for 15m in 4 μl of assay buffer, followed by addition of PD-1-Ig (20 nM final) in 1 μl of assay buffer and further incubation for 15 m. HTRF detection was achieved using europium crypate-labeled anti-Ig (1 nM final) and allophycocyanin (APC) labeled anti-His (20 nM final). Antibodies were diluted in HTRF detection buffer and 5 μl was dispensed on top of the binding reaction. The reaction mixture was allowed to equilibrate for 60 minutes and the resulting signal (665 nm/620 nm ratio) was obtained using an EnVision fluorometer. Additional binding assays were established between the human proteins PD-1-Ig/PD-L2-His (20 & 2 nM, respectively) and CD80-His/PD-L1-Ig (100 & 10 nM, respectively).
Recombinant Proteins: Human PD-1 (25-167) with a C-terminal human Fc domain of immunoglobulin G (Ig) epitope tag [hPD-1 (25-167)-3S-IG] and human PD-L1 (18-239) with a C-terminal His epitope tag [hPD-L1(18-239)-TVMV-His] were expressed in HEK293T cells and purified sequentially by ProteinA affinity chromatography and size exclusion chromatography. Human PD-L2-His and CD80-His was obtained through commercial sources.
For the compound `Cc1c(COc2cc3c(c(OCc4cncc(C#N)c4)c2)CN(CC(=O)O)CC3)cccc1-c1ccc2c(c1)OCCO2` [Example 1001, 2-(8-((5-cyanopyridin-3-yl)methoxy)-6-((3-(2,3-dihydrobenzo[b][1,4]dioxin-6-yl)-2-methylbenzyl)-oxy)-3,4-dihydroisoquinolin-2(1H)-yl)acetic acid], the IC50 was 0.002 to 0.015 µM.

As to `Cc1c(COc2cc(OCc3cncc(C#N)c3)cc3c2CN(CC(=O)O)CC3)cccc1-c1ccc2c(c1)OCCO2` [Example 1002, 2-(6-((5-cyanopyridin-3-yl)methoxy)-8-((3-(2,3-dihydrobenzo[b][1,4]-dioxin-6-yl)-2-methylbenzyl)oxy)-3,4-dihydroiso-quinolin-2(1H)-yl)acetic acid], the IC50 is 0.051 to 1.5 µM.

Consider `Cc1c(COc2cc(O)c3c(c2)CCN(CC(=O)O)C3)cccc1-c1ccc2c(c1)OCCO2` [Example 1003, 2-(6-((3-(2,3-dihydrobenzo[b][1,4]dioxin-6-yl)-2-methylbenzyl)oxy)-8-hydroxy-3,4-dihydroisoquinolin-2(1H)-yl)acetic acid], for which the IC50 was 0.051 to 1.5 µM.

Consider `Cc1c(COc2ccc3c(c2)CN[C@@H](C(=O)O)C3)cccc1-c1ccc2c(c1)OCCO2` [Example 1004, (R)-7-((3-(2,3-dihydrobenzo[b][1,4]dioxin-6-yl)-2-methylbenzyl)oxy)-1,2,3,4-tetrahydroisoquinoline-3-carboxylic acid], for which the IC50 was 1.51 to 10 µM.

For `COC(=O)c1cncc(COc2cc(OCc3cccc(-c4cccc(OCCCN5CC[C@@H](O)C5)c4C)c3C)c(Cl)c3c2CN(CC(=O)O)CC3)c1` [Example 1007, (R)-2-(5-chloro-6-((3′-(3-(3-hydroxypyrrolidin-1-yl)propoxy)-2,2′-dimethyl-[1,1′-biphenyl]-3-yl)methoxy)-8-((5-(methoxycarbonyl)pyridin-3-yl)methoxy)-3,4-dihydro-isoquinolin-2(1H)-yl)acetic acid], the IC50 lay within 0.016 to 0.05 µM.

Staying with this experiment, now noted: PD-L1-His 10 nM, PD-1-Ig 20 nM; reported as value; read-out: IC50 (μM) (Range or value).
In the case of `Cc1c(COc2ccc3c(c2)CN[C@H](C(=O)O)C3)cccc1-c1ccc2c(c1)OCCO2` [Example 1005, (S)-7-((3-(2,3-dihydrobenzo[b][1,4]dioxin-6-yl)-2-methylbenzyl)oxy)-1,2,3,4-tetrahydroisoquinoline-3-carboxylic acid], the IC50 was over 10 µM.

Turning to `Cc1c(COc2cc(OCc3cncc(C#N)c3)c3c(c2Cl)CCN(CC(=O)O)C3)cccc1-c1cccc(OCCCN2CC[C@@H](O)C2)c1C` [Example 1006, (R)-2-(5-chloro-8-((5-cyanopyridin-3-yl)methoxy)-6-((3′-(3-(3-hydroxypyrrolidin-1-yl)propoxy)-2,2′-dimethyl-[1,1′-biphenyl]-3-yl)methoxy)-3,4-dihydroisoquinolin-2(1H)-yl)acetic acid], the IC50 stood at 0.002 µM.

As for `COC(=O)CN1CCc2c(Cl)c(OCc3cccc(-c4cccc(OCCCN5CC[C@@H](O)C5)c4C)c3C)cc(OCc3cncc(C(=O)OC)c3)c2C1` [Example 1008, methyl (R)-5-(((5-chloro-6-((3′-(3-(3-hydroxypyrrolidin-1-yl)propoxy)-2,2′-dimethyl-[1,1′-biphenyl]-3-yl)methoxy)-2-(2-methoxy-2-oxoethyl)-1,2,3,4-tetrahydroisoquinolin-8-yl)oxy)methyl)nicotinate], the IC50 is over 10 µM.
